Entries after “also recorded” stand apart in the source; their conditions may differ. Where a SMILES comes first, the peptide text is derived from it. Bridges are numbered along the chain shown (N, C = ends). [ ]: non-standard residue; d: D form. hArg = N=C(N)NCCCC[C@H](N)C(=O)O; Mpa = O=C(O)CCS
What was measured:
integrin αIIbβ3 = integrin αIIbβ3 (Homo sapiens, UniProt P05106+P08514); experiment: Inhibition of binding of selected RAD antibodies to integrin by peptides
human platelets [1] = experiment: Platelet aggregation assay ex vivo (ADP-induced, lumi-aggregometer); format: cell-based; conditions: ADP 20 μM; for inhibition of platelet aggregation at 90 μM: peptide 90 μM
Procedure: Peripheral human blood was collected as described above. Platelet-rich plasma (PRP) was obtained from the collected peripheral blood by centrifugation at 135 g for 15 min. Subsequent centrifugation at 1,500 g for 15 min yielded platelet-poor plasma (PPP). By mixing PRP and PPP, conditioned plasma of 300,000-350,000 platelets per 1 μl of plasma was prepared. […] The platelet aggregation assay was done as described previously (Klinkhardt, U., Kirchmaier, C. M., Westrup, D., Breddin, H. K., Mahnel, R., Graff, J., Hild, M., and Harder, S. (2000) Differential in vitro effects of the platelet glycoprotein IIb/IIIa inhibitors abxicimab or SR121566A on platelet aggregation, fibrinogen binding and platelet secretory parameters. Thromb Res 97, 201-207) using a whole blood lumi-aggregometer (Chrono-log, Havertown, Pa.). The impedance of each sample was monitored until a stable baseline was established (<5 mV drift per minute). To induce platelet aggregation, 9 μl of an ADP solution was added to reach a final concentration of 20 μM. Increase in impedance across a pair of electrodes over time was transmitted through an interface to a personal computer for analysis (AGGRO/LINK, Chrono-log).

[2] = biological target: T1, interaction of human fibrinogen and human integrin αIIbβ3 (Homo sapiens, UniProt P05106+P08514); experiment: Fibrinogen binding inhibition assay (competitive ELISA)
T1 construct: purchased Enzyme Research Laboratories (South Bend, Ind.)
Procedure: Wells of a Costar 3690 96-well plate were coated with 100 ng of integrin αIIbβ3 in 50 μl metal buffer at 4° C. overnight. The plate was washed twice with water and blocked with 160 μl of 3% (w/v) skim milk in TBS for 1 h at 37° C. […] The final concentrations were adjusted between 1.3×10^−8 M and 8.0×10^−7 M of Fabs and between 8.9×10^−8 M and 9.1×10^−5 M of synthetic peptides. After incubation for 2 h at 37° C. followed by ten times washing with water and five times washing with 0.05% Tween20 in TBS, 50 μl of 0.5 μg/ml streptavidine-HRP (Pierce) diluted in 3% (w/v) skim milk in TBS was added and incubated for 1 h at 37° C. After washing as above, 50 μl of ABTS substrate solution (Barbas, C. F., 3rd, Burton, D. R., Scott, J. K., and Silverman, G. J. (2001) Phage Display: A Laboratory Manual, Cold Spring Harbor Laboratory Press, Cold Spring Harbor, N.Y.) was added. This experiment was repeated three times at each concentration to get the mean value and standard deviation.

platelets = conditions: aggregation induced at 5 μM ADP; read-out: previously reported EC50 of platelet aggregation inhibition; cited from earlier work
[3] = test system: integrins αIIbβ3, αvβ3 and αMβ2; conditions: cited from earlier work
human platelets [4] = experiment: Flow cytometry, Fab binding to cells; format: cell-based; conditions: Fab 0.2 μM, peripheral blood
Procedure: (§1) Peripheral blood was drawn from a healthy volunteer and collected in an ACD tube (Becton Dickinson, San Jose, Calif.). HUVEC were treated for 5 min with 0.05% (w/v) trypsin, 0.53 mM EDTA (Life Technologies), collected by centrifugation at 500 g for […], and resuspended in 1% (w/v) BSA in PBS (phosphate buffered saline). […] After incubation for 40 min at room temperature followed by washing twice with 1% (w/v) BSA in PBS, 10 μl of FITC conjugated anti-human IgG polyclonal antibodies (Sigma-Aldrich) diluted in 750 μl of 1% (w/v) BSA in PBS was added and incubated for 20 min at room temperature. After washing twice with 1% (w/v) BSA in PBS, flow cytometry was performed using a FACStar instrument from Becton Dickinson (San Jose, Calif.).

[5] = human, in vivo; cited from earlier work
HUVEC cells = experiment: Flow cytometry, Fab binding to cells; format: cell-based, human; conditions: Fab 0.2 μM; HUVEC mainly express integrin αvβ3
Procedure: as §1

inhibition of the binding of the selected RAD antibodies to integrin αIIbβ3 (integrin αIIbβ3) | Molecule | inhibition of platelet aggregation ex vivo (in words) (human platelets [1]) | inhibition of platelet aggregation at 90 μM (human platelets [1]) | inhibition of the interaction between integrin αIIbβ3 and fibrinogen (in words) [2] | reported integrin specificity / cross-reactivity [3] | further results
inhibited | CC(C)[C@H](N)C(=O)N[C@H](C(=O)N[C@H]1CSSC[C@@H](C(=O)O)NC(=O)[C@H](CCCNC(=N)N)NC(=O)[C@H](CCCNC(=N)N)NC(=O)[C@H](CC(=O)O)NC(=O)[C@H](C)NC(=O)[C@H](CCCNC(=N)N)NC1=O)C(C)C (H-VVCRADRRC-OH; disulfide 3-9; N-terminus and C-terminus assumed) | inhibited; also recorded: strongly inhibited | completely inhibited | inhibited; also recorded: strongly inhibited | – | –
– | THSDARRRE (inversed RAD motif peptide) [control peptide with an inversed RAD motif, reference compound] | – | – | did not inhibit | – | –
– | Abciximab: chimeric Fab with mouse variable and human constant domains, integrin αIIbβ3 inhibitor | – | – | – | cross-react with integrin αvβ3 and αMβ2 | EC50 (platelets): 34 nM; EC50 (human platelets [1]; conditioned plasma, read-out: EC50, required concentration for 50% inhibition in a human platelet aggregation assay): 45 nM; binding to human platelets (flow cytometry) (human platelets [4]): bound to both platelets and HUVEC cells; occurrence of thrombocytopenia after the second administration [5]: 4%; binding to HUVEC cells (flow cytometry) (HUVEC cells): bound to both platelets and HUVEC cells
inhibited | CC(C)[C@H](N)C(=O)N[C@@H](Cc1c[nH]c2ccccc12)C(=O)N[C@H]1CSSC[C@@H](C(=O)O)NC(=O)[C@H](CCCNC(=N)N)NC(=O)[C@H](CCCCN)NC(=O)[C@H](CC(=O)O)NC(=O)[C@H](C)NC(=O)[C@H](CCCNC(=N)N)NC1=O (H-VWCRADKRC-OH; disulfide 3-9; N-terminus and C-terminus assumed) | inhibited; also recorded: strongly inhibited | completely inhibited | inhibited; also recorded: strongly inhibited | – | –
inhibited | CC(C)[C@H](N)C(=O)N[C@@H](Cc1c[nH]c2ccccc12)C(=O)N[C@H]1CSSC[C@@H](C(=O)O)NC(=O)[C@H](CCCNC(=N)N)NC(=O)[C@H](CCCNC(=N)N)NC(=O)[C@H](CC(=O)O)NC(=O)[C@H](C)NC(=O)[C@H](CCCNC(=N)N)NC1=O (H-VWCRADRRC-OH; disulfide 3-9; N-terminus and C-terminus assumed) | inhibited; also recorded: strongly inhibited | completely inhibited | inhibited; also recorded: strongly inhibited | – | inhibition of platelet aggregation at 9 μM (human platelets [1]; peptide 9 μM): the only peptide to inhibit platelet aggregation
– | VVCDARRRC (inversed RAD motif peptide) [control peptide with an inversed RAD motif, reference compound] | – | – | did not inhibit | – | –
– | N=C(N)NCCCC[C@@H]1NC(=O)CCSSC[C@@H](C(N)=O)NC(=O)[C@@H]2CCCN2C(=O)[C@H](Cc2c[nH]c3ccccc23)NC(=O)[C@H](CC(=O)O)NC(=O)CNC1=O [eptifibatide] ([Mpa][hArg]GDWPC-NH2; disulfide 1-7) | – | – | – | αIIbβ3-specific | incidence of thrombocytopenia versus placebo [5]: approximately the same
– | CCCCS(=O)(=O)N[C@@H](Cc1ccc(OCCCCC2CCNCC2)cc1)C(=O)O [tirofiban] | – | – | – | αIIbβ3-specific | –
– | THSRADRRE (listed as Homo sapiens) [linear nonapeptide derived from HCDR3 of clone RAD1] | not | – | did not inhibit and not | – | –

— patent US8586033B2, “Integrin αIIbβ3 specific antibodies and peptides” (The Scripps Research Institute, priority 2003, dated 2013)
